In one assay the test system is LITAF. Kind of assay: Mice study #2: LITAF immunoblotting of gingival samples. The settings on record: pattern as for Myd88 (disease higher than control and treatment). Format: in vivo, C57BL/6 mice. On the procedure: Western blot analysis. Cells were seeded in 60 mm plates with a density of 5×10^5 cells per plate and washed briefly with Dulbecco's phosphate-buffered saline (Gibco, Waltham, MA, USA). Whole cell lysates were prepared using RIPA lysis buffer containing protease inhibitor cocktail (Sigma-Aldrich). Total protein concentration was determined using the BCA reagent (Pierce, Waltham, MA, USA). 20 μg of total protein were resolved on sodium dodecyl sulfate-polyacrylamide gel electrophoresis and transferred to polyvinylidenedifluoride membrane and immunoblotted. The blots were incubated for 1 h in 1% bovine serum albumin (BSA) (Sigma-Aldrich) to block the non-specific bindings followed by over-night incubation in primary antibodies (MyD88 and pP65 from Cell Signaling Technology, and human LITAF ThermoFisher Sigma) at 4° C. on shaker. Next day, blots were washed for three times (10 min each) in Tris-buffered saline containing 1% Tween20 (TBST) followed by incubation with secondary antibody (Goat anti-rabbit IgG HRP) with 1:10,000 dilution for 1 h. […] The band intensities were quantified using software ImageJ (NIH, USA) and relative protein levels were normalized by β-actin (Cell Signaling). […] The band intensities were measured by the software ImageJ (NIH, USA), and relative protein levels were normalized by β-actin.

In another assay the test system is TNF-α. Briefly: TNF-α ELISA of mice gingival tissue lysates. Format: in vivo. To be noted: n=5, p<0.05. On the procedure:
Enzyme linked immunosorbent assay (ELISA). ELISA was conducted with a mouse TNF-α ELISA Kit (PeproTech, USA) and TGF-β Emax ImmunoAssay System (Promega USA) to detect the TNF-α and TGF-β respectively. After normalization of the total cells or tissue protein lysates, 20 μg protein of each sample was used for the detection of TNF-α or TGF-β. ELISA was performed according to the manufacturers' instructions. For TNF-α, 100 ng/100 μl of capture antibody was added to each well of 96 well assay plate and incubated for overnight at room temperature. Blocking buffer of 200 μl per well were added to each well and incubated for 1 hour at room temperature. 20 μg of each protein sample as well as TNF-α standard (from 2 ng/ml to 0 ng/ml) were added and incubated the plates for 2 hours. 50 ng/100 μl of detection antibody was added in each well and incubated for 2 hours. Avidin-HRP conjugated antibody with a dilution of 1:2000 was added for 30 minutes. 100 μl per well of ABTS solution was added to each well and incubated until color change. Optical absorbing values were read at 405 and 450 nm and corrected by 650 nm. […] TMB One Solution was added for 15 minutes and the reaction were stopped using 100 μl of 1N hydrochloric acid and the absorbance at 450 nm were recorded on a plate reader. Data were analyzed using excel software. […]
Mice gingival tissue lysates were assessed for TNF-α levels using an ELISA (n=5).

On to `Nc1nc2ncc(CNc3ccc(C(=O)N[C@@H](CCC(=O)O)C(=O)O)cc3)nc2c(=O)[nH]1` [folic acid], for which, in the assay on LITAF, the “LITAF expression, pattern across groups” value is reported as “a similar pattern”. Besides, in the assay on TNF-α, the “TNF-α levels in mice gingival tissue lysates” value is “reduced the expression of TNF-α”.

The record behind these values is patent US20260000496A1, “MATERIALS AND METHODS FOR DRUG-INDUCED GINGIVAL OVERGROWTH” (Optimed Technology, Inc., priority 2019, published 2026).
